{"source": "patent US20260224613A1", "about": "“Use Of Inorganic Nitrate For Preventing Restenosis And/Or Device Thrombosis” (Queen Mary University of London, priority 2023, published 2026)", "key": {"[1]": {"system": "Human Coronary Arterial Smooth Muscle Cells (HCSMC)", "details": "NaNO2 3 μM; hypoxia 0.1% O2 24 h, re-oxygenation 8, 24 and 48 h; FIG. 2", "method": "(§1) FIG. 2—Effects of NaNO2 on cell proliferation of Human Coronary Arterial Endothelial Cells (HCAEC) and Human Coronary Arterial Smooth Muscle Cells (HCSMC) exposed to Ischaemia/Reperfusion injury. Cell Count of HCAEC and HCASMC respectively under hypoxia (0.1% O2, 24 h) and re-oxygenation (normoxia, 8, 24 and 48 h post ischaemia)) in the absence and presence of NaNO2 3 μM. n=7/group for HCAEC and n=5/group for HCASMC. Results are expressed as % changes of the respective matched normoxia controls. Data represent mean±SEM of the number of independent experiments performed as indicated above. Statistical significance determined using two-way ANOVA followed by post-test comparing response at each timepoint between treatments determined using Sidak's multiple comparison test."}, "[2]": {"system": "Human Coronary Arterial Endothelial Cells (HCAEC)", "details": "NaNO2 3 μM; hypoxia 0.1% O2 24 h, re-oxygenation 8, 24 and 48 h; FIG. 2", "method": "as §1"}}, "data": [{"smiles": "O=N[O-].[Na+]", "note": "[nitrite, NaNO2]", "values": [{"measurement": "growth of vascular smooth muscle cells following an ischaemia-reperfusion insult", "setting": "[1]", "result": "suppressing"}, {"measurement": "endothelial cell growth following an ischaemia-reperfusion insult", "setting": "[2]", "result": "improves"}]}]}
